Results on four compounds are retold here after article PMC4492731 (Pharmacology Research & Perspectives, 2015).

Data set [1] is classed as in vivo, human. As to conditions: for concentration at 2 h: rifampin plasma concentration, Study 2, day 11, 2 h after drug intake, rifampin 600 mg q.d.; for PCI-45227 mean AUClast / PCI-45227 mean Cmax / PCI-45227 tmax, median (range): fasted.
The conditions of data set [2]: standard breakfast with GFJ; ref de Vries et al. [2015]; cited from earlier work.
Experiment in data set [3]: not given
The source holds these as a separate data set.

Data set [4] concerns Bruton’s tyrosine kinase (BTK). Particulars: reversible binding; ref Parmar et al. [2014]; cited from earlier work.
Where [5] appears, read: Study 1, ibrutinib 120 mg alone, fasted.
[6] abbreviates: Study 2, ibrutinib 560 mg + rifampin 600 mg.
Where [7] appears, read: Study 2, ibrutinib 560 mg alone.
[8] abbreviates: Study 1, ibrutinib 40 mg + ketoconazole 400 mg, fasted.
Where [9] appears, read: Study 1, ibrutinib + ketoconazole vs ibrutinib alone.

Like-named read-outs stand apart in the source and are kept apart here.

As a reminder, the AUC(0-inf) is the area under the concentration-time curve extrapolated to infinity. A lower AUC(0-inf) goes with low exposure. By AUC is commonly meant concentration integrated over time. Read a low AUC as low exposure. For the compound `C=CC(=O)N1CCC[C@@H](n2nc(-c3ccc(Oc4ccccc4)cc3)c3c(N)ncnc32)C1` [Ibrutinib, reference compound], the AUC(0-inf) in data set [1] (human, plasma, oral, 560 mg) turned out to be 300 ng·h/mL; the AUC(0-inf) (human, in vivo, 120 mg) was 71 ng·h/mL; the AUC(0-inf) in data set [3] (human, in vivo, 560 mg) came to 643 ng·h/mL. For the same compound, the “absolute oral bioavailability (F)” value in data set [2] is reported as 15.9%. The “mean DN_AUClast of ibrutinib” value (Study 1, ibrutinib 120 mg alone, day 1, fasted) was determined as 71.4 ng·h/mL. Also, the “mean DN_Cmax of ibrutinib” value (Study 1, ibrutinib 120 mg alone, day 1, fasted, healthy men) came out at 11.8 ng/mL. Further, the AUClast geometric mean under setting [5] is 61 ng·h/mL. The same compound had an AUC (human, in vivo, 120 mg) of 56 ng·h/mL and an AUC in data set [3] (human, in vivo, 560 mg) of 529 ng·h/mL. For the same compound, the “AUCs of ibrutinib following i.v. administration with and without GFJ” value in data set [3] (Study 3, nonfasted, i.v. dose of 100 μg 13C6 PCI-32765) was “the same”.
With `CC(=O)N1CCN(c2ccc(OCC3COC(Cn4ccnc4)(c4ccc(Cl)cc4Cl)O3)cc2)CC1` (stereo not drawn) [ketoconazole, reference compound], the “ketoconazole plasma concentration, two participants with very low concentrations” value (Study 1, day 7, individual values) stood at 231 ng/mL.
In the case of `CO[C@H]1/C=C/O[C@@]2(C)Oc3c(C)c(O)c4c(O)c(c(/C=N/N5CCN(C)CC5)c(O)c4c3C2=O)NC(=O)/C(C)=C\C=C\[C@H](C)[C@H](O)[C@@H](C)[C@@H](O)[C@@H](C)[C@H](OC(C)=O)[C@@H]1C` [rifampin, reference compound], the concentration at 2 h in data set [1] (human, plasma, oral, mean ± SD) was 9250 ± 4960 ng/mL; in data set [1] (human, plasma, oral, range) it was 289 to 18400 ng/mL.
For `Nc1ncnc2c1c(-c1ccc(Oc3ccccc3)cc1)nn2[C@@H]1CCCN(C(=O)C(O)CO)C1` (stereo partly drawn) [PCI-45227], in data set [1] (setting [6]), the “PCI-45227 mean AUClast” value is reported as 374 ng·h/mL; the “PCI-45227 mean Cmax” value came out at 49.9 ng/mL; the “PCI-45227 tmax, median (range)” value worked out at 3.00 h. Also, in data set [1] (setting [7]), the “PCI-45227 mean AUClast” value worked out at 946 ng·h/mL; the “PCI-45227 mean Cmax” value came to 70.0 ng/mL; the “PCI-45227 tmax, median (range)” value came out at 2.02 h. Further, the “metabolite to parent ratio for Cmax” value in data set [1] (Study 2, ibrutinib + rifampin) was 20.80. The “metabolite to parent ratio for Cmax” value in data set [1] (Study 2, ibrutinib alone) came to 2.09. The “inhibitory activity toward BTK relative to ibrutinib” value in data set [4] is on record as “approximately 15 times lower”. Besides, under setting [8], the “PCI-45227 t1/2, mean (SD)” value was found to be 18.00 h and the “PCI-45227 tmax, median (range)” value stood at 4.00 h. Under setting [5], the “PCI-45227 DN_AUClast” value is 304 ng·h/mL; the “PCI-45227 DN_Cmax” value is reported as 29.1 ng/mL; the “PCI-45227 t1/2, mean (SD)” value is given as 11.41 h; the “PCI-45227 tmax, median (range)” value is listed as 2.00 h. Further, for the setting “Study 1, ibrutinib + ketoconazole”, the “mean metabolite to parent ratio for Cmax” value is 0.05. Under setting [9], the “decrease of PCI-45227 DN_AUClast with ketoconazole” value was determined as 1.2 times lower and the “decrease of PCI-45227 DN_Cmax with ketoconazole” value is recorded as 2.6 times lower. In addition, under “Study 1, ibrutinib alone”, the “mean metabolite to parent ratio for Cmax” value came to 2.64. In addition, the “effect of GFJ on tmax of PCI-45227” value in data set [3] (Study 3) is “no effect”. In data set [3] (Study 3, oral ibrutinib), the “dose-normalized PCI-45227 concentrations and AUCs with or without GFJ” value was “comparable”. Moreover, in data set [3] (Study 3, with GFJ), the Cmax metabolite-to-parent ratio turned out to be 0.32. Further, the Cmax metabolite-to-parent ratio in data set [3] (Study 3, without GFJ) came out at 1.03.
